The values below are quoted from earlier work in US6635271B1, “Method for increasing the concentration of conjugated linoleic acid in milk and/or tissue fat of a ruminant” (Valio Oy, priority 1997, dated 2003).

For this data set the following is noted: vaccenic acid fed to mice (Santora et al. 1998).

On to `CCCCCC/C=C\CCCCCCCCCC(=O)O` [vaccenic acid, trans-11 isomer of octadecenoic acid], for which the “tissue fat CLA concentration” value is “tripled”.
